Test results reported in PMC3914206.

Columns and labels:
Assay type in all cases: binding
panel of 442 kinases [1] = target: T1, panel of 442 kinases (Homo sapiens, UniProt P06241); settings: Compound Concentration 10 µM
T1 construct: purchased KINOMEscan
Text: (§1) We assessed the selectivity of members of this scaffold using the KINOMEscan methodology across a near comprehensive panel of 442 kinases [[18,27]].

panel of 442 kinases [2] = target: T2, panel of 442 kinases (Homo sapiens, UniProt Q15759); settings: Compound Concentration 10 µM
T2 construct: purchased KINOMEscan
Text: as §1

panel of 442 kinases [3] = target: T3, panel of 442 kinases (Homo sapiens, UniProt Q86UX6); settings: kinase YANK3; compound concentration 10 µM
T3 construct: purchased KINOMEscan
Text: as §1

panel of 442 kinases [4] = target: T4, panel of 442 kinases (Homo sapiens, UniProt P49840); settings: Compound Concentration 10 µM
T4 construct: purchased KINOMEscan
Text: as §1

T1 sequence (P06241 whole entry): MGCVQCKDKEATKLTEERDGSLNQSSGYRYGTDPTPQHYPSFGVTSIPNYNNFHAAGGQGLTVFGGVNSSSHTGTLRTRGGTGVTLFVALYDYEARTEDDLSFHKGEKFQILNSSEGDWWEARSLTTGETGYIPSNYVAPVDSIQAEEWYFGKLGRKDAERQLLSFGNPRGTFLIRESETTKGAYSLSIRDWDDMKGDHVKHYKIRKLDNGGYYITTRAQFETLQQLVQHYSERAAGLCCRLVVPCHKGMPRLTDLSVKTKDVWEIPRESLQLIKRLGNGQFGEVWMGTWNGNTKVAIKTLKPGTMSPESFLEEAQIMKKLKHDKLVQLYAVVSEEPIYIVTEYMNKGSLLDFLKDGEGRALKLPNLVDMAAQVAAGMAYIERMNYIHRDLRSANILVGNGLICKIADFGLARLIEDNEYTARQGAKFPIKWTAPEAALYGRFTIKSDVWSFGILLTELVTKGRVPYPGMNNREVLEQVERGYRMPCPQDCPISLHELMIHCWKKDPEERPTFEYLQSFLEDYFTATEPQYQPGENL
T4 sequence (P49840 whole entry): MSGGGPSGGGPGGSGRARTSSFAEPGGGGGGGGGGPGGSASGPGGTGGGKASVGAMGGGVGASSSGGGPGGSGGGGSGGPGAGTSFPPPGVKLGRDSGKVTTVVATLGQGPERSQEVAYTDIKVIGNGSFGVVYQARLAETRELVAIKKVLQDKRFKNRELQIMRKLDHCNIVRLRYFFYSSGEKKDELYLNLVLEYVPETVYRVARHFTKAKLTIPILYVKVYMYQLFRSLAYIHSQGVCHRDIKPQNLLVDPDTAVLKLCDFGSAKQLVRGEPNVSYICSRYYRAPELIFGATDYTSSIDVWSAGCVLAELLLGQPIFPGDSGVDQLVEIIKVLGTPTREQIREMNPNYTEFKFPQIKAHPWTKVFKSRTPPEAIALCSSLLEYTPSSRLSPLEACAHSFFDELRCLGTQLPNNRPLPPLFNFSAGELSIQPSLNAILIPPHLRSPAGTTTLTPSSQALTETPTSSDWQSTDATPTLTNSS
T2 sequence (Q15759 whole entry): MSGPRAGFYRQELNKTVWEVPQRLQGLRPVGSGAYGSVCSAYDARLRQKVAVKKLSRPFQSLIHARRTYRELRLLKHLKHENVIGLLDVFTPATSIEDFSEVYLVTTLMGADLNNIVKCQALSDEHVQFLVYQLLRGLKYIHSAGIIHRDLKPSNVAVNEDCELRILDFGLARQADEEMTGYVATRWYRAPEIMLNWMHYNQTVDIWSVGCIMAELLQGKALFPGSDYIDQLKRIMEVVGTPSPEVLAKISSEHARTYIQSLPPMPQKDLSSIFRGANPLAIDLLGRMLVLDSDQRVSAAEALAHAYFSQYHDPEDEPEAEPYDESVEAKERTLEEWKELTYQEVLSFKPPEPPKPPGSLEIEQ
T3 sequence (Q86UX6 whole entry): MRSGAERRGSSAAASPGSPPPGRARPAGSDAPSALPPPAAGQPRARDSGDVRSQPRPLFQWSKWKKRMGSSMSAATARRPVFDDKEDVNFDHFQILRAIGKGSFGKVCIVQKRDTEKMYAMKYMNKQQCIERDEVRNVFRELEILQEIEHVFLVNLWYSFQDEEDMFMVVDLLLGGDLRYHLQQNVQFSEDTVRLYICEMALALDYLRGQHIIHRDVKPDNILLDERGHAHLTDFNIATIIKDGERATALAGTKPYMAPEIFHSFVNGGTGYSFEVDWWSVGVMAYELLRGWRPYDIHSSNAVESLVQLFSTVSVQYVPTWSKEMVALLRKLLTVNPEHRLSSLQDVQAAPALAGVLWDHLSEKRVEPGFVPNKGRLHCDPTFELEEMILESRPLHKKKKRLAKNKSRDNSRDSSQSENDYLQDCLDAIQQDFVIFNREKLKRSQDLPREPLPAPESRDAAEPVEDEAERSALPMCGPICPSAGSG

Structure (SMILES): COc1cc(C(=O)N2CCC(N3CCN(C)CC3)CC2)ccc1Nc1ncc2c(n1)N1CCc3cccc(c31)C(=O)N2C [Compound 24]
- KINOMEscan: FYN (panel of 442 kinases [1]): 82
- KINOMEscan: p38-beta (panel of 442 kinases [2]): 56
- % Ctrl, YANK3 (panel of 442 kinases [3]): 100 % Ctrl

Structure (SMILES): CCOc1cc(C(=O)N2CCC(N3CCN(C)CC3)CC2)ccc1Nc1ncc2c(n1)N(C1CCCC1)c1ccccc1C(=O)N2C [Compound 26]
- KINOMEscan: FYN (panel of 442 kinases [1]): 78
- KINOMEscan: GSK3A (panel of 442 kinases [4]): 100
- KINOMEscan: p38-beta (panel of 442 kinases [2]): 81
- % Ctrl, YANK3 (panel of 442 kinases [3]): 100 % Ctrl

Structure (SMILES): COc1cc(C(=O)N2CCC(N3CCN(C)CC3)CC2)ccc1Nc1ncc2c(n1)N(C1CCCC1)c1ccccc1C(=O)N2C [Compound 25, 11-cyclopentyl-2-((2-methoxy-4-(4-(4-methylpiperazin-1-yl)piperidine-1-carbonyl)phenyl)amino)-5-methyl-5H-benzo[e]pyrimido[5,4-b][1,4]diazepin-6(11H)-one]
- KINOMEscan: FYN (panel of 442 kinases [1]): 86
- KINOMEscan: GSK3A (panel of 442 kinases [4]): 100
- KINOMEscan: p38-beta (panel of 442 kinases [2]): 56
- % Ctrl, YANK3 (panel of 442 kinases [3]): 100 % Ctrl

Structure (SMILES): COc1cc(C(=O)N2CCC(N3CCN(C)CC3)CC2)ccc1Nc1ncc2c(n1)N(C)c1ccccc1C(=O)N2C [15 (LRRK2-IN-1)]
- KINOMEscan: FYN (panel of 442 kinases [1]): 100
- KINOMEscan: GSK3A (panel of 442 kinases [4]): 100
- KINOMEscan: p38-beta (panel of 442 kinases [2]): 60
- % Ctrl, YANK3 (panel of 442 kinases [3]): 100 % Ctrl
